Data taken from US7612107B2, “Treatment and inhibition of disease conditions using flexible heteroarotinoids” (The Board of Regents of the University of Oklahoma, priority 2005, dated 2009).

What was measured:
[1] = system: OVCAR-3 xenograft tumors; assay: OVCAR-3 xenograft tumor growth model; assay type: in vivo, mouse; settings: 10 mg/kg/day by gavage, 5 days per week, 4 weeks
Protocol: Groups of 5 mice bearing OVCAR-3 xenografted tumors were gavaged daily with the indicated drugs in sesame oil (▪ closed square) or with sesame oil alone (∘ open circle). Tumor volumes were measured in 3 dimensions with calipers weekly. Each data point represents the average and standard error of the tumor volumes on the indicated treatment day relative to the tumor volume on day zero. Nu/nu mice were injected subcutaneously with one million OVCAR-3 cells and arbitrarily divided into five groups of six mice each. After three weeks of tumor growth, the animals were gavaged with sesame oil, 10 mg/kg/day 4-HPR, or the indicated Het five times per week for four weeks and the tumors were measured once per week. The tumor sizes were averaged and divided by the average size for each group on the day that treatment was initiated (day 0).
The OVCAR-3 cultures were maintained in RPMI media supplemented with 10% fetal bovine serum. All animal experimentation described in this manuscript was conducted in accord with accepted standards of humane animal care. Twenty-five female NU/NU CD-1 female mice (Charles Rivers Laboratories) were housed in a laminar flow room under sterile conditions at 83-85° F. The mice were quarantined for one week prior to the beginning of the study and were allowed access to autoclaved food (Purina 5001 mouse/rat sterilizable diet, St. Louis, Mo.) and water ad libitum. OVCAR-3 cells in log phase growth were harvested by trypsinization, resuspended in RPMI culture medium, and centrifuged at 3,000 rpm for 10 min. The pellets were resuspended in RPMI culture medium at a concentration of 7×10^6 cells/ml before implantation into mice. Animals were injected with 3.5×10^6 cells into the right scapular region with a 24-gauge needle/1 cc tuberculin syringe. Twenty-four hours after tumor implantation, animals were randomized into 5 groups of 5 animals each.
The Hets SHet50, SHetA2 and SHetA4 were synthesized and their receptor specificity determined as previously described (17,19). The 4-HPR compound was a gift from R.W. Johnson Pharmaceutical Research Institute, Raritan, N.J. All retinoids were dissolved in super refined sesame oil (Croda, Inc., Parsippany, N.J.) and stored at −80° C. Since the retinoids are light sensitive, all manipulations involving retinoids were performed under subdued lighting. […] Tumors were measured with calipers weekly, and tumor volumes were calculated using the formula: volume=length×width×height. Tumor growth was determined by the dividing the volume of the tumor at each weekly measurement by the volume on the first day of treatment. Animal weights and clinical signs of overall health status and cutaneous toxicities were recorded weekly.

[2] = system: B16 mouse melanoma; assay: B16 melanoma syngeneic tumor model; assay type: in vivo
Protocol: FIG. 12. Various Xenograft tumors stained with CD34 antibodies (brown) to identify endothelium. The B16 mouse melanoma cell line was established as a syngeneic tumor in an immunocompetent mouse model and the human Caki renal cancer and A2780 ovarian xenograft tumors in immunocompromised mice. The treated mice were gavaged with 60 mg/kg/day SHetA2 and the untreated were gavaged with solvent only. The tumors were excised and sections were stained with the anti-CD34 antibody to detect endothelial cells (brown stain).
Survival was the primary endpoint of those studies. […] Tumor growth was the primary endpoint of the renal cancer study.

[3] = system: NF-κB; assay: NF-κB luciferase reporter assay in A2780 cultures; assay type: cell-based; settings: 10 μM SHetA2
Protocol: FIG. 15. SHetA2 Inhibition of NF-κB. A2780 cultures were transfected with the NF-κB reporter and treated with 10 μM SHetA2 for the indicated times. Cell lysates were prepared and evaluated for luciferase activity which was normalized for protein concentration.
Because both TP and TSP4 have DNA binding sites for the NFκB transcription factor in their promoter, the ability of SHetA2 to inhibit activity of NF-κB in ovarian cancer cultures was tested using a luciferase reporter plasmid driven by NF-κB sites in the promoter. […] Inhibition increased over the 4 hour evaluation time (FIG. 15).

CC1(C)CC(C)(C)c2cc(NC(=S)Nc3ccc([N+](=O)[O-])cc3)ccc2S1 [SHetA2]
Growth of xenograft tumors versus sesame oil control [1]: significantly inhibited the growth
Survival [2]: improved survival
Time to inhibition of NF-κB activity [3]: ≤ 30 min
